In patent US8969565B2, “Imidazo[1,2-b]pyridazine-based compounds, compositions comprising them, and methods of their use” (Lexicon Pharmaceuticals, Inc., priority 2012, dated 2015):
Where a name gives a salt, the structure may show the parent alone.

What was measured:
AAK1 [1] = biological target: T1, AAK1 (Homo sapiens, UniProt Q2M2I8); test: HEK281 cell-based assay (phospho-mu2 Western blot in transfected HEK293F cells); settings: 3 hours incubation, read-out: CBA IC50
T1 construct: HA; expressed in transfected cells; host or cells: HEK293F
T1 sequence (Q2M2I8 1-863 isoform Q2M2I8-2): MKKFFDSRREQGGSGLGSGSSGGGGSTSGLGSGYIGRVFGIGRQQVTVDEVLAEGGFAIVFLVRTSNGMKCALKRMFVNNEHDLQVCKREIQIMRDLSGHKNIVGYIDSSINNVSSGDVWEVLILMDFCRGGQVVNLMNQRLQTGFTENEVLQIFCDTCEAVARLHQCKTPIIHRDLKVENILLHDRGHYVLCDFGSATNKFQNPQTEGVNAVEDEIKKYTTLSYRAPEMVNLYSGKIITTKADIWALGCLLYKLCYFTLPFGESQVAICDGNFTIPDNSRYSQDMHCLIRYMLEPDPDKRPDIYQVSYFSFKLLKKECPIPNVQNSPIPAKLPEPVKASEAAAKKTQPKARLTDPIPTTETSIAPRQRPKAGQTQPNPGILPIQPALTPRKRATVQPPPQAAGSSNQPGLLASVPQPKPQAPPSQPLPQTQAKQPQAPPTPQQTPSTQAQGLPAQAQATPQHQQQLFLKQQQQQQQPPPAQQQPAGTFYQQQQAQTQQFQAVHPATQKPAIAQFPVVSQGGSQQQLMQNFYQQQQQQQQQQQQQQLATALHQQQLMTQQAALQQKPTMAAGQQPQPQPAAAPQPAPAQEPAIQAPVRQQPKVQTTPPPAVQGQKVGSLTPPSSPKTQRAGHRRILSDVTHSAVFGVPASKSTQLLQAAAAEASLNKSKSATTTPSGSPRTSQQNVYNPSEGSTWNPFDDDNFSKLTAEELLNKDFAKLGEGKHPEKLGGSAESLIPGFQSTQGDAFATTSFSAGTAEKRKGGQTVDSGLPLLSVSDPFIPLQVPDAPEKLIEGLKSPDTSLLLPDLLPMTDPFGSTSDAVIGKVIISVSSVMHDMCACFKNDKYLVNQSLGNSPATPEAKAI
In short: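 After 3 hours at 37° C. with compound (five 3-fold-spaced concentrations, DMEM+0.5% FBS), transiently transfected HEK293F cells expressing full-length human AAK1 and Flag-tagged mu2 were lysed. mu2 phosphorylation was read by anti-phospho-mu2 immunoblot, normalized against total mu2 by anti-Flag blot.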

AAK1 [2] = biological target: T1, AAK1; test: P81 filter plate assay; assay type: biochemical; settings: full-length human AAK1, Mu2 substrate

FC(F)(F)CCCNc1ccc2ncc(-c3cccc4c3OCC4)n2n1 (as salt: hydrochloride) [Example 5.6.106, [3-(2,3-Dihydro-benzofuran-7-yl)-imidazo[1,2-b]pyridazin-6-yl]-(4,4,4-trifluoro-butyl)-amine]
melting point: 299 to 300 °C

O=C(N1CCCC1)N1CCN(c2ccc3ncc(-c4ccccn4)n3n2)CC1 (as salt: hydrochloride) [[4-(3-Pyridin-2-yl-imidazo[1,2-b]pyridazin-6-yl)-piperazin-1-yl]-pyrrolidin-1-yl-methanone]
melting point: 202 to 203 °C

COc1ncccc1-c1cnc2ccc(N3CCN(C(=O)OC(C)C)CC3)nn12 (as salt: hydrochloride) [Example 5.6.151, 4-[3-(2-Methoxy-pyridin-3-yl)-imidazo[1,2-b]pyridazin-6-yl]-piperazine-1-carboxylic acid isopropyl ester]
melting point: 179 to 181 °C (dec.)

CC(C)NC(=O)N1CCN(c2ccc3ncc(-c4ccccc4)n3n2)CC1 (as salt: hydrochloride) [N-Isopropyl-4-(3-phenylimidazo[1,2-b]pyridazin-6-yl)piperazine-1-carboxamide]
melting point: 217 to 218 °C (dec.)

CC(C)OC(=O)N1CCN(c2ccc3ncc(Br)n3n2)CC1C (racemic) [Example 5.6.147, Isopropyl 4-(3-bromoimidazo[1,2-b]pyridazin-6-yl)-2-methylpiperazine-1-carboxylate]
melting point: 144 to 145 °C

CN(CCNc1ccc2ncc(-c3ccc(C(N)=O)cc3)n2n1)C(=O)NC(C)(C)C
melting point: 154 to 155 °C

CC(C)SC(=O)N1CCN(c2ccc3ncc(-c4ccccc4)n3n2)CC1 (as salt: hydrochloride) [S-Isopropyl 4-(3-phenylimidazo[1,2-b]pyridazin-6-yl)piperazine-1-carbothioate]
melting point: 276 to 277 °C (dec.)

COc1cnccc1-c1cnc2ccc(N3CCCN(C(=O)OC(C)(C)C)CC3)nn12 [Example 5.6.121, 4-[3-(3-Methoxy-pyridin-4-yl)-imidazo[1,2-b]pyridazin-6-yl]-[1,4]diazepane-1-carboxylic acid tert-butyl ester]
melting point: 115 to 116 °C

CC(C)(C)NC(=O)N1CCN(c2ccc3ncc(-c4ccccc4)n3n2)CC1 (as salt: hydrochloride) [N-(tert-Butyl)-4-(3-phenylimidazo[1,2-b]pyridazin-6-yl)piperazine-1-carboxamide]
melting point: 210 to 211 °C (dec.)

COc1ccccc1-c1cnc2ccc(N3C[C@H]4C[C@@H]3CN4C(=O)OC(C)C)nn12 (stereo in doubt) (as salt: hydrochloride) [Example 5.6.154, Isopropyl 5-(3-(2-methoxyphenyl)imidazo[1,2-b]pyridazin-6-yl)-2,5-diazabicyclo[2.2.1]heptane-2-carboxylate]
melting point: 173 to 174 °C

CC(C)OC(=O)N1CCN(c2ccc3ncc(Br)n3n2)CC1 [Example 5.6.102, 4-(3-Bromo-imidazo[1,2-b]pyridazin-6-yl)-piperazine-1-carboxylic acid isopropyl ester]
melting point: 123 to 124 °C

O=C(N1CCCCC1)N1CCN(c2ccc3ncc(-c4ccccc4)n3n2)CC1 [(4-(3-phenylimidazo[1,2-b]pyridazin-6-yl)piperazin-1-yl)(piperidin-1-yl)methanone]
IC50 (AAK1 [1]): ≤ 0.1 µM
IC50 (AAK1 [2]): ≤ 0.01 µM

CN(C(=O)OC(C)(C)C)[C@H]1CCN(c2ccc3ncc(Br)n3n2)C1 [[(S)-1-(3-Bromo-imidazo[1,2-b]pyridazin-6-yl)-pyrrolidin-3-yl]-methyl-carbamic acid tert-butyl ester]
IC50 (AAK1 [1]): ≤ 1 µM
IC50 (AAK1 [2]): ≤ 0.01 µM

CCOC(=O)N1CCN(c2ccc3ncc(-c4ccccc4)n3n2)CC1 [ethyl 4-(3-phenylimidazo[1,2-b]pyridazin-6-yl)piperazine-1-carboxylate]
IC50 (AAK1 [1]): ≤ 0.1 µM
IC50 (AAK1 [2]): ≤ 0.01 µM

CC(C)(C)COC(=O)N1CCC[C@H]1CNc1ccc2ncc(-c3ccc(CN)cc3)n2n1 [(S)-neopentyl 2-(((3-(4-(aminomethyl)phenyl)imidazo[1,2-b]pyridazin-6-yl)amino)methyl)pyrrolidine-1-carboxylate]
IC50 (AAK1 [1]): ≤ 0.01 µM
IC50 (AAK1 [2]): ≤ 0.01 µM

CC(C)(C)CCN1C(=O)CC[C@H]1CNc1ccc2ncc(Br)n2n1 [(S)-5-(((3-bromoimidazo[1,2-b]pyridazin-6-yl)amino)methyl)-1-(3,3-dimethylbutyl)pyrrolidin-2-one]
IC50 (AAK1 [1]): ≤ 0.1 µM
IC50 (AAK1 [2]): ≤ 0.01 µM

CCOC(=O)N(C)[C@H]1CCN(c2ccc3ncc(-c4cc(C)cnc4OC)n3n2)C1 [(S)-ethyl (1-(3-(2-methoxy-5-methylpyridin-3-yl)imidazo[1,2-b]pyridazin-6-yl)pyrrolidin-3-yl)(methyl)carbamate]
IC50 (AAK1 [1]): ≤ 0.1 µM
IC50 (AAK1 [2]): ≤ 0.01 µM

CCOC(=O)N(C)[C@H]1CCN(c2ccc3ncc(-c4cccnc4OC)n3n2)C1 [(S)-ethyl (1-(3-(2-methoxypyridin-3-yl)imidazo[1,2-b]pyridazin-6-yl)pyrrolidin-3-yl)(methyl)carbamate]
IC50 (AAK1 [1]): ≤ 0.1 µM
IC50 (AAK1 [2]): ≤ 0.01 µM

c1cc2c(cc1-c1cnc3ccc(NCCOC4CCCC4)nn13)OCO2 [3-(benzo[d][1,3]dioxol-5-yl)-N-(2-(cyclopentyloxy)ethyl)imidazo[1,2-b]pyridazin-6-amine]
IC50 (AAK1 [1]): ≤ 1 µM
IC50 (AAK1 [2]): ≤ 0.1 µM

COc1ncccc1-c1cnc2ccc(N3CC[C@H](N(C)C(=O)OC(C)C)C3)nn12 [{(S)-1-[3-(2-Methoxy-pyridin-3-yl)-imidazo[1,2-b]pyridazin-6-yl]-pyrrolidin-3-yl}-methyl-carbamic acid isopropyl ester]
IC50 (AAK1 [1]): ≤ 0.01 µM
IC50 (AAK1 [2]): ≤ 0.01 µM

CC(C)(C)OC(=O)N1CCC[C@H]1CNc1ccc2ncc(-c3ccc(CN)cc3)n2n1 [(S)-tert-butyl 2-(((3-(4-(aminomethyl)phenyl)imidazo[1,2-b]pyridazin-6-yl)amino)methyl)pyrrolidine-1-carboxylate]
IC50 (AAK1 [1]): ≤ 0.01 µM
IC50 (AAK1 [2]): ≤ 0.01 µM

CC(C)OC(=O)N1CCN(c2ccc3ncc(-c4ccccc4F)n3n2)CC1 [isopropyl 4-(3-(2-fluorophenyl)imidazo[1,2-b]pyridazin-6-yl)piperazine-1-carboxylate]
IC50 (AAK1 [1]): ≤ 0.1 µM
IC50 (AAK1 [2]): ≤ 0.01 µM

CC(C)(C)CNC(=O)N1CCC[C@H]1CNc1ccc2ncc(-c3ccccc3)n2n1 [(S)-N-neopentyl-2-(((3-phenylimidazo[1,2-b]pyridazin-6-yl)amino)methyl)pyrrolidine-1-carboxamide]
IC50 (AAK1 [1]): ≤ 0.1 µM
IC50 (AAK1 [2]): ≤ 0.01 µM

COc1ccccc1-c1cnc2ccc(N3CCN(C(=O)N4CCCCC4)CC3)nn12 [(4-(3-(2-methoxyphenyl)imidazo[1,2-b]pyridazin-6-yl)piperazin-1-yl)(piperidin-1-yl)methanone]
IC50 (AAK1 [1]): ≤ 0.1 µM
IC50 (AAK1 [2]): ≤ 0.01 µM

Cc1cnc2ccc(NC[C@@H]3CCCN3C(=O)OC(C)(C)C)nn12 [(S)-tert-butyl 2-(((3-methylimidazo[1,2-b]pyridazin-6-yl)amino)methyl)pyrrolidine-1-carboxylate]
IC50 (AAK1 [1]): ≤ 0.1 µM
IC50 (AAK1 [2]): ≤ 0.01 µM

CC(C)CC(=O)N1CCC[C@H]1CNc1ccc2ncc(-c3cccc(Cl)c3)n2n1 [(S)-1-(2-(((3-(3-chlorophenyl)imidazo[1,2-b]pyridazin-6-yl)amino)methyl)pyrrolidin-1-yl)-3-methylbutan-1-one]
IC50 (AAK1 [1]): ≤ 0.01 µM
IC50 (AAK1 [2]): ≤ 0.01 µM

O=C(CC(F)(F)F)N1CCC[C@H]1CNc1ccc2ncc(-c3ccccc3)n2n1 [(S)-3,3,3-trifluoro-1-(2-(((3-phenylimidazo[1,2-b]pyridazin-6-yl)amino)methyl)pyrrolidin-1-yl)propan-1-one]
IC50 (AAK1 [1]): ≤ 0.01 µM
IC50 (AAK1 [2]): ≤ 0.01 µM

CC(C)CC(=O)N1CCC[C@H]1CNc1ccc2ncc(-c3ccccc3)n2n1 [(S)-3-methyl-1-(2-(((3-phenylimidazo[1,2-b]pyridazin-6-yl)amino)methyl)pyrrolidin-1-yl)butan-1-one]
IC50 (AAK1 [1]): ≤ 0.1 µM
IC50 (AAK1 [2]): ≤ 0.01 µM

N#Cc1ccc(-c2cnc3ccc(NCCOC4CCCC4)nn23)s1 [5-(6-((2-(cyclopentyloxy)ethyl)amino)imidazo[1,2-b]pyridazin-3-yl)thiophene-2-carbonitrile]
IC50 (AAK1 [1]): ≤ 0.1 µM
IC50 (AAK1 [2]): ≤ 0.01 µM

CC(C)CCN1C(=O)CC[C@H]1CNc1ccc2ncc(-c3ccc(CN)cc3)n2n1 [(S)-5-(((3-(4-(aminomethyl)phenyl)imidazo[1,2-b]pyridazin-6-yl)amino)methyl)-1-isopentylpyrrolidin-2-one]
IC50 (AAK1 [1]): ≤ 0.1 µM
IC50 (AAK1 [2]): ≤ 0.01 µM

COc1ccccc1-c1cnc2ccc(N3CC[C@H](N(C)C(=O)N4CCCC4)C3)nn12 [(S)—N-(1-(3-(2-methoxyphenyl)imidazo[1,2-b]pyridazin-6-yl)pyrrolidin-3-yl)-N-methylpyrrolidine-1-carboxamide]
IC50 (AAK1 [1]): ≤ 0.1 µM
IC50 (AAK1 [2]): ≤ 0.01 µM

COc1ncc(C)cc1-c1cnc2ccc(N3CC[C@H](N(C)C(=O)OC(C)C)C3)nn12 [(S)-isopropyl (1-(3-(2-methoxy-5-methylpyridin-3-yl)imidazo[1,2-b]pyridazin-6-yl)pyrrolidin-3-yl)(methyl)carbamate]
IC50 (AAK1 [1]): ≤ 0.1 µM
IC50 (AAK1 [2]): ≤ 0.01 µM

CCOC(=O)N(C)[C@H]1CCN(c2ccc3ncc(-c4cc(F)ccc4OC)n3n2)C1 [(S)-ethyl (1-(3-(5-fluoro-2-methoxyphenyl)imidazo[1,2-b]pyridazin-6-yl)pyrrolidin-3-yl)(methyl)carbamate]
IC50 (AAK1 [1]): ≤ 0.1 µM
IC50 (AAK1 [2]): ≤ 0.01 µM

COc1cc(C)c(F)cc1-c1cnc2ccc(N3CCN(C(=O)OC(C)C)CC3)nn12 [isopropyl 4-(3-(5-fluoro-2-methoxy-4-methylphenyl)imidazo[1,2-b]pyridazin-6-yl)piperazine-1-carboxylate]
IC50 (AAK1 [1]): ≤ 0.01 µM
IC50 (AAK1 [2]): ≤ 0.01 µM

CC(C)OC(=O)N(C)[C@H]1CCN(c2ccc3ncc(-c4cccnc4)n3n2)C1 [(S)-isopropyl methyl(1-(3-(pyridin-3-yl)imidazo[1,2-b]pyridazin-6-yl)pyrrolidin-3-yl)carbamate]
IC50 (AAK1 [1]): ≤ 0.1 µM
IC50 (AAK1 [2]): ≤ 0.01 µM
